Data from patent US20250000936A1, “TREATMENT OF GEOGRAPHIC ATROPHY” (Apellis Pharmaceuticals, Inc., priority 2021, published 2025).

Key:
[1] = system: patients with geographic atrophy (GA) secondary to age-related macular degeneration (AMD); assay: DERBY and OAKS combined: GA lesion growth and visual function; type: in vivo, human; details: for reduction in GA lesion growth from baseline compared to sham: combined analysis (FIG. 30); for reduction in lesion growth, study eye vs untreated fellow eye: bilateral GA, 12 months (FIG. 7D); for reduction in foveal lesion growth vs pooled sham / reduction in extrafoveal GA lesion growth vs pooled sham: month 18; for reduction of GA lesion growth vs pooled sham: months 18-24
Description: (§1) This Example describes 12-month results from two Phase 3 multi-center, randomized, double-masked, sham-controlled studies (“DERBY” and “OAKS”) to compare the efficacy and safety of intravitreal APL-2 (pegcetacoplan, also referred to as “Study Drug” in this Example) therapy with sham injections in patients with geographic atrophy (GA) secondary to age-related macular degeneration (AMD).
(§2) To participate in the studies, subjects must have been diagnosed with GA of the macula secondary to AMD in the study eye. At screening, male and female subjects were required to fulfill all of the following inclusion criteria to be eligible for participation in the study. If both eyes met the inclusion criteria, the eye with the worst normal luminance visual acuity at the screening visit was designated as the study eye. If both eyes had the same visual acuity, the right eye was selected as the study eye. Ocular-specific inclusion criteria applied to the study eye only, unless otherwise specified.
(§3) The design of the DERBY and OAKS studies are schematically depicted in FIG. 2. Each subject was assigned a unique screening number after signing the informed consent. Subjects who completed the study screening assessments and met all the eligibility criteria entered the study and were randomized on Day 1. As part of the screening process, the reading center evaluated FAF, OCT, Digital Color Fundus Photograph (DCFP), Near Infrared Reflectance (NIR), and fluorescein angiography (FA) to provide an objective assessment of subject eligibility. Subjects were randomized 2:2:1:1 to receive treatment with Study Drug monthly (PM), Study Drug every other month (PEOM), sham injection monthly (SM) or sham injection every other month (SEOM), respectively.
(§4) The Study Drug was pegcetacoplan (also referred to as “APL-2”) (see FIG. 1), which was provided for intravitreal injection at 15 mg/0.1 mL (150 mg/mL) as a sterile, isotonic solution of pegcetacoplan in acetate-buffer, pH 5.0, containing trehalose, supplied in stoppered glass vials.
(§5) The primary endpoint in the studies was the change from baseline to Month 12 in total area of GA lesion(s) in the study eye (in mm^2) based on Fundus Autofluorescence (FAF). Key secondary endpoints included change from baseline in the mean threshold sensitivity of all points (study eye) assessed by mesopic microperimetry at Month 24; change from baseline in monocular maximum reading speed (study eye), at Month 24 as assessed by MNRead or Radner reading charts (in select sites); change from baseline in mean FRI Index score (subject-level assessment) at Month 24; and change from baseline in NL-BCVA score (study eye) at Month 24 as assessed by Early Treatment Diabetic Retinopathy Study (ETDRS) chart. Additional secondary endpoints included change from baseline in LL-BCVA score (study eye) over time as assessed by ETDRS chart; change from baseline in the total area of GA lesion(s) in the study eye (in mm^2) as assessed by FAF over time other than Month 12; change from baseline in monocular critical print size (study eye), as assessed by MNRead or Radner reading charts (in select sites) over time; change from baseline in the NEI VFQ-25 distance activity subscale score (in select sites) (subject level assessment) over time; change from baseline in the number of scotomatous points assessed by mesopic microperimetry over time; and change from baseline in the mean threshold sensitivity within 500 microns outside the GA lesion, (perilesional points) assessed by mesopic microperimetry over time.
(§6) Two sham treatment arms (SM and SEOM) were pooled into a single control (Sham) group for analyses.
(§7) Subjects were analyzed in the treatment arm assigned at randomization.
(§8) Unless otherwise noted, hypothesis testing and estimation of treatment effects will be performed with a mixed effect model for repeated measure (MMRM) that includes data from all three treatment arms (PM, PEOM, and Sham). […]

[2] = system: patients with geographic atrophy (GA) secondary to age-related macular degeneration (AMD); assay: DERBY Phase 3 study: GA lesion growth in study eye by fundus autofluorescence; type: in vivo, human; details: for reduction in GA lesion growth from baseline compared to sham: over 24 months; for reduction in lesion growth in the study eye versus the untreated study eye: bilateral GA; for reduction in lesion growth in the study eye versus the untreated study eye / percentage reduction versus sham pooled: 18 months
Description: as §1, §2, §3, §4, §5, §6, §7, §8

[3] = post-hoc quartiles of GA lesion growth over 18 months (FIG. 27)

## Poly(oxy-1,2-ethanediyl), α-hydro-ω-hydroxy-, 15,15′-diester with N-acetyl-L-isoleucyl-L-cysteinyl-L-valyl-1-methyl-L-tryptophyl-L-glutaminyl-L-α-aspartyl-L-tryptophylglycyl-L-alanyl-L-histidyl-L-arginyl-L-cysteinyl-L-threonyl-2-[2-(2-aminoethoxy) ethoxy]acetyl-N^6-carboxy-L-lysinamide cyclic (2->12)-(disulfide) [pegcetacoplan]
[1]; EOM, p<0.0001
  reduction in GA lesion growth from baseline compared to sham: 24%
[1]; monthly, p<0.0001
  reduction in GA lesion growth from baseline compared to sham: 30%
[1]; combined, 24 months (FIG. 31, NL-BCVA)
  key secondary endpoints measuring visual function, pegcetacoplan vs sham: no clinically meaningful difference
[1]; combined, every other month
  reduction in lesion growth, study eye vs untreated fellow eye: 11%
[1]; combined, monthly
  reduction in lesion growth, study eye vs untreated fellow eye: 16%
[1]; combined, every other month, month 12, p<0.0012
  reduction in GA lesion growth vs pooled sham: 14%
[1]; combined, every other month, p 0.0069
  reduction in foveal lesion growth vs pooled sham: 13%
[1]; combined, every other month, p=0.0006
  reduction in extrafoveal GA lesion growth vs pooled sham: 21%
[1]; combined, every other month, months 0-6 segment
  reduction in GA lesion growth vs pooled sham: 12%
[1]; combined, every other month, months 12-18 segment
  reduction in GA lesion growth vs pooled sham: 17%
[1]; combined, extrafoveal lesions, EOM
  reduction of GA lesion growth vs pooled sham: 28%
[1]; combined, extrafoveal lesions, every other month, 12 months, p=0.0002
  reduction in GA lesion growth vs pooled sham: 23%
[1]; combined, extrafoveal lesions, monthly, 12 months, p<0.0001
  reduction in GA lesion growth vs pooled sham: 26%
[1]; combined, extrafoveal lesions, monthly
  reduction of GA lesion growth vs pooled sham: 28%
[1]; combined, foveal lesions, EOM
  reduction of GA lesion growth vs pooled sham: 28%
[1]; combined, foveal lesions, monthly
  reduction of GA lesion growth vs pooled sham: 34%
[1]; combined, monthly, month 12, p<0.0001
  reduction in GA lesion growth vs pooled sham: 17%
[1]; combined, monthly, p<0.0001
  reduction in extrafoveal GA lesion growth vs pooled sham: 26%
[1]; combined, monthly, p=0.0070
  reduction in foveal lesion growth vs pooled sham: 13%
[1]; combined, monthly, months 0-6 segment (FIG. 12B)
  reduction in GA lesion growth vs pooled sham: 13%
[1]; combined, monthly, months 12-18 segment (FIG. 12B)
  reduction in GA lesion growth vs pooled sham: 21%
[2]; EOM, months 18-24, p=0.0002
  reduction of GA lesion growth versus sham: 29%
[2]; EOM, p 0.0030 nominal
  reduction in GA lesion growth from baseline compared to sham: 16%
[2]; every other month, p<0.0001
  reduction in lesion growth in the study eye versus the untreated study eye: 16%
[2]; monthly, p=0.0053
  reduction in lesion growth in the study eye versus the untreated study eye: 12%
[2]; distance >250 microns, every other month, p=0.0689
  reduction in GA lesion growth versus sham: 19%
[2]; distance >250 microns, monthly, p=0.2691
  reduction in GA lesion growth versus sham: 13%
[2]; distance ≤250 microns, every other month, p=0.0724
  reduction in GA lesion growth versus sham: 12%
[2]; distance ≤250 microns, monthly, p=0.0490
  reduction in GA lesion growth versus sham: 12%
[2]; every other month, >50 microns, p=0.0047
  percentage reduction versus sham pooled: 24%
[2]; every other month, >100 microns, p=0.0022
  percentage reduction versus sham pooled: 26%
[2]; every other month, >150 microns, p=0.0076
  percentage reduction versus sham pooled: 24%
[2]; every other month, >200 microns, p 0.0229
  percentage reduction versus sham pooled: 20%
[2]; every other month, month 12, p=0.0750
  reduction in GA lesion growth vs pooled sham: 11%
[2]; every other month, month 18, p=0.0023
  reduction in GA lesion growth, covariate-adjusted post-hoc analysis: 16%
[2]; every other month, month 18, p=0.0035
  reduction in extrafoveal GA lesion growth, covariate-adjusted: 24%
[2]; every other month, month 18, p=0.0075
  reduction in extrafoveal GA lesion growth vs pooled sham: 23%
[2]; every other month, month 18, p=0.0332 nominal
  reduction in GA lesion growth vs pooled sham: 12%
[2]; every other month, month 18, p=0.1723
  reduction in foveal GA lesion growth, covariate-adjusted: 9%
[2]; every other month, month 18, p=0.5538
  reduction in foveal GA lesion growth vs pooled sham: 4%
[2]; every other month, months 6-12 segment (FIG. 12A)
  reduction in GA lesion growth vs pooled sham: 16%
[2]; monthly, >50 microns, p=0.0433
  percentage reduction versus sham pooled: 18%
[2]; monthly, >100 microns, p=0.0266
  percentage reduction versus sham pooled: 20%
[2]; monthly, >150 microns, p 0.0468
  percentage reduction versus sham pooled: 19%
[2]; monthly, >200 microns, p=0.0985
  percentage reduction versus sham pooled: 16%
[2]; monthly, month 12, p=0.0528
  reduction in GA lesion growth vs pooled sham: 12%
[2]; monthly, month 18, p 0.0254 nominal
  reduction in GA lesion growth vs pooled sham: 13%
[2]; monthly, month 18, p=0.0024
  reduction in GA lesion growth, covariate-adjusted post-hoc analysis: 16%
[2]; monthly, month 18, p=0.0280
  reduction in foveal GA lesion growth, covariate-adjusted: 14%
[2]; monthly, month 18, p=0.0380
  reduction in extrafoveal GA lesion growth, covariate-adjusted: 18%
[2]; monthly, month 18, p=0.0606
  reduction in extrafoveal GA lesion growth vs pooled sham: 17%
[2]; monthly, month 18, p=0.2015
  reduction in foveal GA lesion growth vs pooled sham: 9%
[2]; monthly, months 6-12 segment (FIG. 12A)
  reduction in GA lesion growth vs pooled sham: 17%
[2]; monthly, months 18-24, p<0.0001
  reduction of GA lesion growth versus sham: 36%
[2]; monthly, p=0.0004 nominal
  reduction in GA lesion growth from baseline compared to sham: 19%
[2]; [3]
  decrease of patients in Q4 (fast progressors), relative to sham: 33%
  increase of patients in Q1 (slow progressors), relative to sham: 15%
